These results are taken from patent US11414385B2, “Compounds and methods for treating, detecting, and identifying compounds to treat apicomplexan parasitic diseases” (The University of Chicago, priority 2015, dated 2022).

What is called efflux ratio is the permeability from basolateral to apical divided by that in the opposite direction, in the common usage. One may read the Papp A→B as how fast a substance crosses the layer from the apical side. High values mean fast passage, low ones slow passage. One may read the inhibition as the share of the control response that was lost under treatment.

Data set [1] deals with T1, Plasmodium falciparum bc1 complex cytochrome c reductase (Pfbc1) (Plasmodium falciparum, UniProt Q02768).
T1 construct: Parasite extract was then prepared by disruption with a sonicating probe; endogenous in cells; host or cells: P. falciparum 3D7 blood-stage parasites, saponin-freed and sonicated (crude parasite extract)
T1 sequence (Q02768 1-376): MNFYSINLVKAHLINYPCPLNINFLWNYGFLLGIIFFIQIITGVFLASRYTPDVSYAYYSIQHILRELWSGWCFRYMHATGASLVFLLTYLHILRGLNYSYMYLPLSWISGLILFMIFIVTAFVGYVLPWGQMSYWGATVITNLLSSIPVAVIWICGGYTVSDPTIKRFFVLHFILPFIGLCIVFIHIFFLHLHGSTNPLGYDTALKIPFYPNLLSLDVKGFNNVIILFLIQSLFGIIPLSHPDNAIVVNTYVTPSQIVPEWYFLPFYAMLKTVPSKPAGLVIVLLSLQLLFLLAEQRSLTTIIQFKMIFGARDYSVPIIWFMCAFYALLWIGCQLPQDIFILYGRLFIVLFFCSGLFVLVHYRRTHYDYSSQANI
Briefly: Pfbc1 native assay (cytochrome c reduction by parasite extract). The class given is biochemical. The settings on record: compound 1 μM, mean ± s.e.m. of 4 independent experiments. How it is done:
Plasmodium falciparum: 3D7 strain was obtained from the Liverpool School of Tropical Medicine. Protease cocktail inhibitor was obtained from Roche. Bradford protein assay dye reagent was obtained from Bio-Rad. All other reagents were obtained from Sigma-Aldrich. Decylubiquinol was produced as per Fisher et al. (Fisher et al. 2004)^21. In brief, 25 mg of decylubiquinone were dissolved in 400 μl of nitrogen-saturated hexane. An equal volume of aqueous 1 M sodium dithionite was added, and the mixture vortexed until colorless. The organic phase containing the decylubiquinol was collected, the solvent was evaporated under N2 and the decylubiquinol finally dissolved in 100 μl of 96% ethanol (acidified with 10 mM HCl). Concentrations of decylubiquinol was determined spectrophotometrically on a Cary 300 Bio UV/visible spectrophotometer (Varian, UK) from absolute spectra, using ε288-320=8.1 mM-1·cm^−1. Decylubiquinol was stored at −80° C. and used within two weeks.
The protocol for the preparation of parasite extract was adapted from Fisher et al. (Fisher et al. 2009)^22. Free parasites were prepared from infected erythrocytes pooled from five T75 flasks, by adding 5 volumes of 0.15% (w/v) saponin in phosphate-buffered saline (137 mM NaCl, 2.7 mM KCl, 1.76 mM K2HPO4, 8.0 mM Na2HPO4, 5.5 mM D-glucose, pH 7.4) for 5 min, followed by three washes by centrifugation in RPMI containing HEPES (25 mM), and a final resuspension in potassium phosphate buffer (50 mM K2HPO4, 50 mM KH2PO4, 2 mM EDTA, pH7.4) containing a protease inhibitor cocktail (Complete Mini; Roche). Parasite extract was then prepared by disruption with a sonicating probe for 5 s, followed by a 1 min rest period on ice to prevent the sample overheating. […] The protein concentration of the parasite extract was determined by Bradford protein assay (Bio-Rad).
Plasmodium falciparum bc1 complex cytochrome c reductase (Pfbc1) activity was measured by monitoring cytochrome c reduction at 550 versus 542 nm using a Cary 300 Bio UV-Visible Spectrophotometer (Varian, UK), using a protocol adapted from Fisher et al. (Fisher et al. 2009)^21-23. […]

In a further data set the test system is MDR1. Briefly: in vitro. The class given is in vitro ADME. The settings on record: dog, MDCK-MDR1, MDCK-MDR1 Efflux Ratio.
The next data set in a line: in vitro. The conditions noted are these: dog, MDCK-MDR1. The class given is in vitro ADME.

In the case of `Cc1[nH]c2c(c(=O)c1-c1ccc(Oc3ccc(OC(F)(F)F)cc3)cc1)CCCC2` [JAG21, 2-methyl-3-(4-(4-(trifluoromethoxy)phenoxy)phenyl)-5,6,7,8-tetrahydroquinolin-4(1H)-one], the “Inhibition of cytochrome c reduction (% atovaquone response)” value in data set [1] is 86.4 ± 3.2 % atovaquone response. Also, in the data set on MDR1, the efflux ratio was under 1.5. For the same molecule, the Papp A→B in “in vitro” was over 100 nm/s.
As to `Cc1[nH]c2c(c(=O)c1-c1ccc(Oc3ccccc3)cc1)CCCC2` [MJM170], the inhibition at 1 µM in data set [1] (read-out: Inhibition of cytochrome c reduction (% atovaquone response)) came out at 69.7 ± 11.3%. In the data set with MDR1, the efflux ratio was under 1.5. In “in vitro”, the Papp A→B worked out at 321 nm/s.
